Laboratory results reported in US20060199211A1, “Fluorous-based microarrays” (priority 2005, published 2006).

Tests used:
[1] = tested on: lectin from Triticum vulgaris (wheat germ, FITC-WGA); experiment: Fluorous carbohydrate microarray screened with FITC-labeled wheat germ lectin (fluorescence scan at 488 nm); format: binding; settings: carbohydrates 4-11 spotted (2 mM in 80% methanol/water) on fluorinated glass slide; FITC-WGA in PBS buffer (0.25 M), 30 min; WGA bound only to this one
Description: (§1) With the fluorous-tagged carbohydrates in hand, the ability of the single C8F17 tail to anchor these mono- and disaccharides to a glass slide surface even after repeated washes was examined. The fluorous-tagged carbohydrates 4-11 were dissolved in 80% methanol/water and were spotted onto fluoroalkylsilane-derivatized glass slides employing a standard robot used for DNA arraying. The slides then were incubated for 30 minutes with the commercially available FITC (fluorescein isothiocyanate)-labeled lectins from Triticum vulgaris (wheat germ, FITC-WGA) in phosphate buffered saline (PBS buffer) (0.25 M) and Arachis hypogaea (peanut, FITC-PNA) in PBS buffer (0.5 M) and rinsed repeatedly with the assay buffer followed by distilled water. After drying, the slide was scanned with a standard fluorescent slide scanner at 488 nm to reveal the carbohydrate-binding specificities of these two lectins. As expected the wheat germ lectin WGA bound only to the fluorous-tagged N-acetylglucosamine (5). In contrast, the peanut lectin PNA bound to both galactose (7) and lactose (10) in the array experiment. This lectin is known to bind to galactose both alone and in the context of the lactose disaccharide. […]

[2] = target: T1, lectin from Arachis hypogaea (peanut, FITC-PNA) (Arachis hypogaea, UniProt P02872); experiment: Fluorous carbohydrate microarray screened with FITC-labeled peanut lectin (fluorescence scan at 488 nm); format: binding; settings: carbohydrates 4-11 spotted (2 mM in 80% methanol/water) on fluorinated glass slide; FITC-PNA in PBS buffer (0.5 M), 30 min
T1 construct: purchased EY Laboratories, San Mateo, Calif
T1 sequence (P02872 24-273): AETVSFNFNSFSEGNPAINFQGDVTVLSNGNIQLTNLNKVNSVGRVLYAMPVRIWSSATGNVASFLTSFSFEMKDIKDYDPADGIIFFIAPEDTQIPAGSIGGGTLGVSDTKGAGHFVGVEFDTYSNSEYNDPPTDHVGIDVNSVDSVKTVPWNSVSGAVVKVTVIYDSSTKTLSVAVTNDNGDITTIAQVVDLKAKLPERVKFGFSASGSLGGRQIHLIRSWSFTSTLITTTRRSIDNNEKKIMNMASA
Description: as §1

SMILES	binding of wheat germ lectin WGA to arrayed fluorous-tagged carbohydrate [1]	binding of peanut lectin PNA to arrayed fluorous-tagged carbohydrate [2]
CC(=O)N[C@H]1[C@H](OCCCCOCCCC(F)(F)C(F)(F)C(F)(F)C(F)(F)C(F)(F)C(F)(F)C(F)(F)C(F)(F)F)O[C@H](CO)[C@@H](O)[C@@H]1O [Compound 5, 3-(perfluorooctyl)propanyloxybutanyl-2-deoxy-2-acylamino-β-D-glucopyranoside]	bound	
OC[C@H]1O[C@@H](OCCCCOCCCC(F)(F)C(F)(F)C(F)(F)C(F)(F)C(F)(F)C(F)(F)C(F)(F)C(F)(F)F)[C@H](O)[C@@H](O)[C@H]1O [Compound 7]		bound
OC[C@H]1O[C@@H](O[C@H]2[C@H](O)[C@@H](O)[C@H](OCCCCOCCCC(F)(F)C(F)(F)C(F)(F)C(F)(F)C(F)(F)C(F)(F)C(F)(F)C(F)(F)F)O[C@@H]2CO)[C@H](O)[C@@H](O)[C@H]1O [Compound 10]		bound
